Results as given in patent publication US7008949B2, “Heterocyclic compounds which inhibit leukocyte adhesion mediated by α4 integrins” (Elan Pharmaceuticals, Inc., priority 2003, dated 2006).
≈ marks a conversion by molar mass, not a printed value.

What was measured:
α4β1 Integrin = target: T1, α4β1 Integrin (Homo sapiens, UniProt P05556+P13612); assay: α4β1 Integrin Adhesion Assay: Jurkat cell adhesion to human plasma fibronectin; type: cell-based; conditions: Jurkat cells
T1 construct: endogenous in cells; host or cells: Jurkat cells
Protocol: 96 well plates (Costar 3590 EIA plates) were coated with human fibronectin (Gibco/BRL, cat #33016-023) at a concentration of 10 μg/mL overnight at 4° C. The plates were then blocked with a solution of bovine serum albumin (BSA; 0.3%) in saline. Jurkat™ cells (maintained in log phase growth) were labeled with Calcein AM according to the manufacturer's instructions, and suspended at a concentration of 2×10^6 cells/mL in Hepes/Saline/BSA. The cells were then exposed to test and control compounds for 30 minutes at room temperature before transfer to individual wells of the fibronectin coated plate. Adhesion was allowed to occur for 35 minutes at 37° C. The wells were then washed by gentle aspiration and pipetting with fresh saline. Fluorescence associated with the remaining adherent cells was quantified using a fluorescence plate reader at EX 485/EM 530.
Cell cultures were prepared by first splitting the stationary phase Jurkat™ cells at 1:10 on day one, and 1:2 on day two to perform assay on day 3. The cells split 1:10 on day one were split 1:4 on day 3 for a day 4 assay.
The assay plates were prepared by first making a working solution of Gibco/BRL Human Fibronectin (cat # 33016-023) in PBS++, at 10 μg/mL.
A Costar 3590 EIA plate was then coated with 50 μL/well for 2 hours at room temperature (thought it can also be left overnight at 4° C.). Finally the plate was asperated and blocked with Hepes/Saline Buffer, 100 μL/well, for 1 hour at RT followed by washing three times with 150 μL of PBS++.
Compound dilutions were accomplished by preparing 1:3 serial dilutions of compounds as follows. For each plate (4 compounds/plate) 600 μL were added to 4 Bio-Rad Titertubes in a Titertube rack. Enough compound was added to each appropriate tube to give a 2× concentration using methods well known in the art. Using Falcon Flexiplates, 100 μL of Hepes/Saline buffer or human serum were added to rows B through G. A multi-channel pipetter set to 180 μL was used to with four tips spaced evenly the pipetter. Each set of four tubes was mixed 5 times and 180 μL of 2× compound was transferred to the first column of each compound dilution in Row B, leaving Row A empty. 180 μL were added to the other wells in Row A. Serial dilutions were performed down the plate by transferring 50 μL to the next dilution and mixing 5 times, changing tips each time after mixing. Dilutions were stopped at Row F. Row G had no compound present.
A 20 μg/mL solution in Hepes/Saline buffer or human serum, of 21/6 antibody was the positive control and was set aside in a reagent trough to add to cell suspension plate.
The cell staining was accomplished by first harvesting the log-phase Jurkat™ cells by centrifugation in 50 mL tubes (1100 rpm for 5 minutes). The cells were resuspended in 50 mL PBS++, spun, and resuspend in 20 mL PBS++. The cells were stained by adding 20 μL of Calcein AM for 30 minutes R.T. The volume was brought to 50 mL with Hepes/Saline buffer and the cells were counted, spun, and resuspend to 2×10^6 cells/mL in Hepes/Saline buffer or human serum.
The compounds were incubated using the following procedure. In a new flexiplate, 65 μL of stained cells were added to Rows B through H. Then 65 μL of 2× compounds were added to the appropriate rows following the plate setup and mixed 3×. 65 μL of 2×-21/6 antibody were added to Row H and mixed 3×. Finally the plate was incubated at room temperature for 30 minutes.
Fibronectin adhesion was measured using a fluorescent plate reader at EX 485/EM 530 after the following work up procedure. After incubation, the cells were mixed 3× and 100 μL were transferred to the Fibronectin coated plates and incubated at 37° C. for about 35 minutes. Each plate was washed, row by row, by gently pipetting 100 μL of R.T. PBS++ down the sides of the wells and turning the plate 90 degrees to aspirate. This procedure was repeated for a total of 3 washes. Each well was filled with 100 μL after washing by pipetting down the side of the well. […]

[1] = Cassette dosing and serum analysis for determination of oral bioavailability; type: in vivo, rat; conditions: male SD rats, oral cassette of 6 compounds, total dose 10 mg/kg, plasma at 4, 8, 12 h
Protocol: The oral bioavailability was screened by dosing rats with a cassette, i.e. mixture of 6 compounds per dosing solution. The cassette included 5 test articles and a standard compound, for a total dose of 10 mg/kg. Each compound/test article was converted to the sodium salt with equimolar 1 N NaOH and dissolved in water at 2 mg/mL. The cassette was prepared by mixing equal volumes of each of the six solutions. The cassette dosing solution was mixed well and then the pH was adjusted to 7.5–9. The dosing solution was prepared the day before the study and stirred overnight at room temperature.
Male Sprague Dawley (SD) rats from Charles River Laboratories, 6–8 weeks old were used in this screen. Rats were quarantined for at least one day and had continuous access to food and water. On the night before the administration of the cassette, the rats were fasted for approximately 16 h.
Four SD rats were assigned in each cassette. A single dose of the dosing solution was administered orally to each rat. The dosing volume (5 mL/kg) and time were recorded and rats were fed 2 h after dosing.
Blood samples were collected via cardiac puncture at the following time points: 4 h, 8 h and 12 h. Immediately prior to blood collection, rats were anesthetized with CO2 gas within 10–20 seconds. After the 12-hour samples were collected, the rats were euthanized via CO2 asphyxiation followed by cervical dislocation.
Blood samples were kept in heparinized microtainer tubes under sub-ambient temperature (4° C.) before they were processed. Blood samples were centrifuged (10000 rpm for 5 minutes) and plasma samples were removed and stored in a −20° C. freezer until analyzed for drug levels. Drug levels in the plasma were analyzed using the following protocol for direct plasma precipitation.
The in vivo plasma samples were prepared in a 1.5 mL 96-well plate, by adding, in order, 100 μL of the test plasma, 150 μL of methanol, followed by vortexing for 10–20 seconds. 150 μL of 0.05 ng/μL of an Internal Standard in acetonitrile were added and vortexed for 30 seconds.
The standard curve samples were prepared in a 1.5 mL 96-well plate, by adding, in order, 100 μL of control mouse plasma, followed by 150 μL of methanol and vortexing for 10–20 seconds. 150 μL of 0.05 ng/μL of an Internal Standard in acetonitrile were added and vortexed for 30 seconds. The samples were spiked with 0–200 ng (10 concentrations) of the compound of interest in 50% methanol to obtain a standard curve range of 0.5 ng/mL–2,000 ng/mL. Again, the sample was vortexed for 30 seconds.
The samples were then spun for 20–30 minutes at 3000 rpm in an Eppendorf microfuge before 80–90% of supernatant was transferred into a clean 96-well plate. The organic solvent was then evaporated until the samples were dry (under N2 at 40° C./30–60 min (ZymarkTurbovap)).
The residue was then dissolved in […] mobile phase (50% CH3OH/0.1% TFA). LC/MS/MS was then run using a PE-Sciex API-3000 triple quadurpole mass spectrometer (SN0749707), Perkin-Elmer, Series200auto-sampler, and shimadzu 10A pump. Acquisition was done with PE-Sciex Analyst (v1.1) and data analysis and quantification were accomplished using PE-Sciex Analyst (v1.1). A 5–50 μL sample volume was injected onto a reverse phase ThermoHypersil DASH-18 column (Keystone 2.0×20 mm, 5 μm, PN: 8823025-701) using a mobile phase of 25% CH3OH, 0.1% TFA-100% CH3OH, 0.1% TFA. The run time was about 8 minutes at a flow rate of about 300 μL/minutes.
The Area Under the Curve (AUC) was calculated using the linear trapezoidal rule from t=0 to the last sampling time tx (see Handbook of Basic Pharmacokinetics, Wolfgang A. Ritschel and Gregory L. Kearns, 5th ed, 1999). AUC^0→tx═S((Cn+Cn+1)/2))·(tn+1−tn)[(μg/mL)h]
In the case of the cassette dosing paradigm, samples at 4, 8 and 12 h post extravascular dosing, the AUC was calculated from t=0 to t=12 h.

[2] = IC50, Cell Adhesion to Human Plasma Fibronectin (With Human Serum), with human serum
[3] = IC50, Cell Adhesion to Human Plasma Fibronectin (Without the Human Serum), without human serum

T1 sequence (P13612 34-1032): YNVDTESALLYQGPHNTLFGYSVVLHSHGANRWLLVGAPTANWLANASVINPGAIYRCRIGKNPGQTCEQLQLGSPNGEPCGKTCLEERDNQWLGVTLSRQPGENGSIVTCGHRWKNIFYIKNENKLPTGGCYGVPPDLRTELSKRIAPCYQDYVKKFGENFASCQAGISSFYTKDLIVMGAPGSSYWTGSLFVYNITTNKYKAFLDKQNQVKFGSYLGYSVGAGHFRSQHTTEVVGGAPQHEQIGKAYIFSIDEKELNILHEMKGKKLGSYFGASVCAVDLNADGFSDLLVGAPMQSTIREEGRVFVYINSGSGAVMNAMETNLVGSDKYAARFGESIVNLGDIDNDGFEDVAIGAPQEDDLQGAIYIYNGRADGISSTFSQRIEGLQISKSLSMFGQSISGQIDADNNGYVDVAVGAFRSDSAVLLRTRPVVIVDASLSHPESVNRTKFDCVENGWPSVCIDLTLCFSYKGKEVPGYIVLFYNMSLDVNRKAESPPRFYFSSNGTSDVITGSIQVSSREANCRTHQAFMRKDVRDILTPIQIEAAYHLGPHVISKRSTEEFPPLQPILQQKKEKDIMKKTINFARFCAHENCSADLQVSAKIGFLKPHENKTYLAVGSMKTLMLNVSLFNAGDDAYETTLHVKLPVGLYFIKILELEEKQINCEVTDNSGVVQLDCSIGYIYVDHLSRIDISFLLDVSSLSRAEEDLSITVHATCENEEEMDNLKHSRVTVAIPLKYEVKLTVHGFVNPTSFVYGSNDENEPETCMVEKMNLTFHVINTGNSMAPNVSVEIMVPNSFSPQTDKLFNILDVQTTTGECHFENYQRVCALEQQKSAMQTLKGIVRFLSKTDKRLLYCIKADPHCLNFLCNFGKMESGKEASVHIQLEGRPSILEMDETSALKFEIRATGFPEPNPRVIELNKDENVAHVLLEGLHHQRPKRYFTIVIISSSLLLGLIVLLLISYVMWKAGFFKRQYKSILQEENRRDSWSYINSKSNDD
T1 sequence (P05556 21-798): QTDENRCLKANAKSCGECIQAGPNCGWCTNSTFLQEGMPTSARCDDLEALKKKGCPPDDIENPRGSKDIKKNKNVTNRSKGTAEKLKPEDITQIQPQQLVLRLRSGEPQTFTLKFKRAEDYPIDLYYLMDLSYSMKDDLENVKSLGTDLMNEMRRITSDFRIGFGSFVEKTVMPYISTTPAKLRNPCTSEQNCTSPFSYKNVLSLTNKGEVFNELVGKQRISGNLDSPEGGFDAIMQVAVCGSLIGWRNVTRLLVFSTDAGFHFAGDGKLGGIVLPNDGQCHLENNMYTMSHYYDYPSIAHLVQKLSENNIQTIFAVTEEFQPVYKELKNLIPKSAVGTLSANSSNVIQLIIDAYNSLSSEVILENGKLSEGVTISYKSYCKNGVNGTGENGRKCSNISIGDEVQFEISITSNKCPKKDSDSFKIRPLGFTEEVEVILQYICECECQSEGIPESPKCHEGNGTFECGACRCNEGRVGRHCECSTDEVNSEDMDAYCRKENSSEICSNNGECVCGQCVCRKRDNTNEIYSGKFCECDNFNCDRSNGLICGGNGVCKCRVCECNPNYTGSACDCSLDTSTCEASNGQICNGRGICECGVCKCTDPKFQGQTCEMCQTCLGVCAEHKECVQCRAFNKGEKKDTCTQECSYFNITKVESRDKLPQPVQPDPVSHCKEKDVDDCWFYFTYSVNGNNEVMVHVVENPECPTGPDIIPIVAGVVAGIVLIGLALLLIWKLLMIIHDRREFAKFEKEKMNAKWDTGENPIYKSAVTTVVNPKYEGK

Row | Compound | IC50 (α4β1 Integrin; [2]) [nM] | IC50 (α4β1 Integrin; [3]) [nM] | AUC (average AUC 0→12 h) [1] | IC50, Cell Adhesion to Human Plasma Fibronectin (With Human Serum) (α4β1 Integrin; with human serum) [µg/mL] | IC50, Cell Adhesion to Human Plasma Fibronectin (Without the Human Serum) (α4β1 Integrin; without human serum) [µg/mL]
1 | CCN(CC)c1ncc(N(C(C)C)S(=O)(=O)c2ccc(Cl)cc2)c(N[C@@H](Cc2ccc(OC(=O)N(C)C)cc2)C(=O)O)n1 [Example 11] | 362 | 3.85 | 0.4251 (μg/mL)h | – | –
2 | CCN(CC)c1ncc(N(CC2CC2)S(=O)(=O)c2ccc(F)cc2)c(N[C@@H](Cc2ccc(OC(=O)N(C)C)cc2)C(=O)O)n1 [Example 14, 2-{2-diethylamino-5-[(4-fluorobenzenesulfonyl)cylclopropylmethylamino]pyrimidin-4-ylamino}-3-(4-dimethylcarbamoyl-oxyphenyl)propionic acid] | 63.6 | 1.59 | 0.7164 (μg/mL)h | – | –
3 | CCN(CC)c1ncc(N(C)S(=O)(=O)c2cc(F)cc(F)c2)c(N[C@@H](Cc2ccc(OC(=O)N(C)C)cc2)C(=O)O)n1 [Example 15, 2-{2-diethylamino-5-[(3.5-difluorobenzenesulfonyl)methylamino]pyrimidin-4-ylamino}-3-(4-dimethylcarbamoyloxypheyl) propionic acid] | 205 | 1.51 | 0.2098 (μg/mL)h | – | –
4 | CCN(CC)c1ncc(N(CC)S(=O)(=O)c2cc(F)cc(F)c2)c(N[C@@H](Cc2ccc(OC(=O)N(C)C)cc2)C(=O)O)n1 [Example 16, 2-{2-diethylamino-5-[(3.5-difluorobenzenesulfonyl)ethylamino]pyrimidin-4-ylamino}-3-(4-dimethylcarbamoyloxyphenyl) propionic acid] | 108 | 1.67 | 0.1721 (μg/mL)h | – | –
5 | CCN(CC)c1ncc(N(C)S(=O)(=O)c2ccc(F)cc2F)c(N[C@@H](Cc2ccc(OC(=O)N(C)C)cc2)C(=O)O)n1 [Example 17] | 39.6 | 1.65 | 1.0075 (μg/mL)h | – | –
6 | CCN(CC)c1ncc(N(CC)S(=O)(=O)c2ccc(F)cc2F)c(N[C@@H](Cc2ccc(OC(=O)N(C)C)cc2)C(=O)O)n1 [Example 18] | 40.3 | 3.22 | 0.2578 (μg/mL)h | – | –
7 | CCN(CC)c1ncc(N(C)S(=O)(=O)c2cc(Cl)cc(Cl)c2)c(N[C@@H](Cc2ccc(OC(=O)N(C)C)cc2)C(=O)O)n1 [Example 19] | 133 | 5.31 | 0.0697 (μg/mL)h | – | –
8 | CCN(CC)c1ncc(N(CC)S(=O)(=O)c2cc(Cl)cc(Cl)c2)c(N[C@@H](Cc2ccc(OC(=O)N(C)C)cc2)C(=O)O)n1 [Example 20] | 119 | 7.82 | 0.0536 (μg/mL)h | – | –
9 | CCCN(c1cnc(N(CC)CC)nc1NC(Cc1ccc(OC(=O)N(C)C)cc1)C(=O)O)S(=O)(=O)c1ccc(F)cc1 (stereo not drawn) [Example 21, 2-{2-diethylamino-5-[(4-fluorobenzenesulfonyl)-n-propylamino]pyrimidin-4-ylamino}-3-(4-dimethylcarbamoyloxyphenyl) propionic acid] | 649 | 5.09 | 0.6321 (μg/mL)h | – | –
10 | CCN(CC)c1ncc(N(CC(C)C)S(=O)(=O)c2ccc(F)cc2)c(N[C@@H](Cc2ccc(OC(=O)N(C)C)cc2)C(=O)O)n1 [Example 23, 2-{2-diethylamino-5-[(4-fluorobenzenesulfonyl)isobotylamino]pyrimidin-4-ylamino}-3-(4-dimethylcarbamoyloxyphenyl)propionic acid] | 117 | 6.34 | 0.413 (μg/mL)h | – | –
11 | CCCCN(c1cnc(N(CC)CC)nc1NC(Cc1ccc(OC(=O)N(C)C)cc1)C(=O)O)S(=O)(=O)c1ccc(F)cc1 (stereo not drawn) [Example 24, 2-{2-diethylamino-5-[(4-fluorobenzenesulfonyl)-n-butylamino]pyrimidin-4-ylamino}-3-(4-dimethylcarbamoyloxyphenyl)propionic acid] | 42.8 | 4.76 | 0.4983 (μg/mL)h | – | –
12 | CCN(CC)c1ncc(N(C)S(=O)(=O)c2cc(F)ccc2F)c(NC(Cc2ccc(OC(=O)N(C)C)cc2)C(=O)O)n1 (stereo not drawn) [Example 25] | – | – | 0.4559 (μg/mL)h | 6.72 (≈ 11.1 µM) | 0.006 (≈ 0.00989 µM)
13 | CCN(CC)c1ncc(N(CC)S(=O)(=O)c2cccc(F)c2F)c(NC(Cc2ccc(OC(=O)N(C)C)cc2)C(=O)O)n1 (stereo not drawn) [Example 26, 2-{2-diethylamino-5-[(2.3-difluorobenzenesulfonyl)ethylamino]pyrimidin-4-ylamino}-3-(4-dimethylcarbamoyloxyphenyl) propionic acid] | – | – | 0.3392 (μg/mL)h | 0.01848 (≈ 0.0298 µM) | 0.001 (≈ 0.00161 µM)
